From ChEMBL document CHEMBL1201862, “PubChem BioAssay data set” (2004)
The source made the active and inactive calls.

Tests used:
Beta-galactosidase = Beta-galactosidase (Escherichia coli, UniProt Q8VNN2); experiment: PubChem AID 485352; type: functional
[1] = target: T1, Heat shock factor protein 1 (Mus musculus, UniProt P38532); experiment: inhibition of MG132-induced HSE-luciferase signal, confirmation, cell-based, NIH3T3, luminescence, dose retest (AID 2382); type: functional;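 note: NIH3T3 fibroblasts with HSF1-driven luciferase reporter stressed by proteasome inhibitor MG132; luminescence from HSF1-driven luciferase expression after 8 hours of MG132 stress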
T1 sequence (P38532 whole entry): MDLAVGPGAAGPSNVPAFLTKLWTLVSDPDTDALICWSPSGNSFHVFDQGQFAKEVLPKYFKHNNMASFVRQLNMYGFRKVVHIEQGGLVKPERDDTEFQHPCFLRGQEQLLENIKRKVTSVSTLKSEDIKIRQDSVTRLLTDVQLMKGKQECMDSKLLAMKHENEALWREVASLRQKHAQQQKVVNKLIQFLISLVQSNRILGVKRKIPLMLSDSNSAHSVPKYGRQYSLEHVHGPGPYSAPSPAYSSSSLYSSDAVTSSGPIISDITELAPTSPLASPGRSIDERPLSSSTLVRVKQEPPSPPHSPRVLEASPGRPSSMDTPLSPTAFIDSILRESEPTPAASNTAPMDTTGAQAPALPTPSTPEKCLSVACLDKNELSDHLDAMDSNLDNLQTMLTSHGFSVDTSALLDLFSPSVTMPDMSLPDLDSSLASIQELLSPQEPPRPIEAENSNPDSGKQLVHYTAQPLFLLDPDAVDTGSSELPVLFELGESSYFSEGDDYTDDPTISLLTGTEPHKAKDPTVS

[2] = target: Type-1 angiotensin II receptor (Homo sapiens, UniProt P30556); experiment: AT1 receptor antagonists, dose response, selectivity assay for APJ receptor antagonist project, cell-based, uHTS hits (AID 463214); type: functional;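 note: antagonist potency against angiotensin II stimulated AT1 response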
Type-1 angiotensin II receptor, sequence (P30556 whole entry): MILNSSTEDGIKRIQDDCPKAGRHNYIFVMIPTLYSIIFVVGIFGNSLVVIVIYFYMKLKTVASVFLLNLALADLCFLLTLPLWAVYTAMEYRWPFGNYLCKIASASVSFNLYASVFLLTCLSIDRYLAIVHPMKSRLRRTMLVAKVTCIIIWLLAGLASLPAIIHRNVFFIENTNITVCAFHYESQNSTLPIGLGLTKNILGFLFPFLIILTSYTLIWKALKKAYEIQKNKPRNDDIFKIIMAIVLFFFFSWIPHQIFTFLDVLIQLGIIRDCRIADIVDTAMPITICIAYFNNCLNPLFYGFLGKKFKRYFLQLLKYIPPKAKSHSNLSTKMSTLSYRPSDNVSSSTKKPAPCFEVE

[3] = THP-1 cell cytotoxicity, dose response, cytotoxicity control for non-replicating M. tuberculosis project (AID 489025); type: functional
[4] = HepG2 cell cytotoxicity, dose response, cytotoxicity control for non-replicating M. tuberculosis project (AID 489018); type: functional; conditions: Mycobacterium tuberculosis
[5] = Vero E6 cell cytotoxicity, dose response, cytotoxicity control for non-replicating M. tuberculosis project, secondary assay (AID 492998); type: functional, VeroE6; conditions: Vero C1008
cells = type: functional
CHO = experiment: cytotoxicity in TLR9-MyD88 CHO cells, dose response, cytotoxicity control for TLR9-MyD88 binding inhibitor project, cell-based, luminescence (AID 588339); type: functional, hamster; conditions: Cricetulus griseus;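 note: CHO cells stably coexpressing TLR9 and MyD88 fusions from primary screen; compound exposure lasted 48 hours before viability readout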
[6] = target: Heat shock protein HSP 90-alpha (Homo sapiens, UniProt P07900); type: functional, organism-based
Beta Lactamase = Beta Lactamase (Pseudomonas aeruginosa, UniProt Q932Y6); experiment: beta-lactamase reporter inhibitor potency, dose response, artefact control for TLR9-MyD88 binding inhibitor project, BLA reporter cells, FRET fluorescence (AID 588341); type: cell-based;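 note: cell based assay in CHO-K1 cells stably expressing beta-lactamase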
Beta Lactamase, sequence (Q932Y6 whole entry): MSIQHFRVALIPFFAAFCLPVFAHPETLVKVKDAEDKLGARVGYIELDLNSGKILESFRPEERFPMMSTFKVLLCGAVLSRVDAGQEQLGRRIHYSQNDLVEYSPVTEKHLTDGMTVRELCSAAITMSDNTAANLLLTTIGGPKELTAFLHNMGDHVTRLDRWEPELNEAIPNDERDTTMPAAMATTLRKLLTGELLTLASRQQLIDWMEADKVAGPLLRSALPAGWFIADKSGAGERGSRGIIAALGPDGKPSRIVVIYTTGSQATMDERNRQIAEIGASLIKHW

INS1 = experiment: beta cell apoptosis inhibitors, cytokine rescue, dose response, luminescence, retest (AID 449756); type: functional, cell-based; conditions: Rattus norvegicus;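 note: cell death triggered by IL-1 beta plus TNF-alpha plus IFN-gamma mixture; protective hits raise ATP signal compared with cytokine alone wells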
[7] = Fluorescence-based cell-based high throughput dose response assay for inhibitors of the interaction of nucleotide-binding oligomerization domain containing 2 (NOD2) and the receptor-interacting serine-threonine kinase 2 (RIPK2).; type: functional; conditions: Homo sapiens
Paired box protein Pax-8 = Paired box protein Pax-8 (Homo sapiens, UniProt Q06710); experiment: inhibitors of PAX8-driven TPO luciferase reporter, dose response, RMG-I cells, cherry-pick (AID 687027); type: functional, cell-based;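 note: luciferase reporter driven by Pax8 target thyroperoxidase promoter measured by SteadyGlo luminescence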
Paired box protein Pax-8, sequence (Q06710 whole entry): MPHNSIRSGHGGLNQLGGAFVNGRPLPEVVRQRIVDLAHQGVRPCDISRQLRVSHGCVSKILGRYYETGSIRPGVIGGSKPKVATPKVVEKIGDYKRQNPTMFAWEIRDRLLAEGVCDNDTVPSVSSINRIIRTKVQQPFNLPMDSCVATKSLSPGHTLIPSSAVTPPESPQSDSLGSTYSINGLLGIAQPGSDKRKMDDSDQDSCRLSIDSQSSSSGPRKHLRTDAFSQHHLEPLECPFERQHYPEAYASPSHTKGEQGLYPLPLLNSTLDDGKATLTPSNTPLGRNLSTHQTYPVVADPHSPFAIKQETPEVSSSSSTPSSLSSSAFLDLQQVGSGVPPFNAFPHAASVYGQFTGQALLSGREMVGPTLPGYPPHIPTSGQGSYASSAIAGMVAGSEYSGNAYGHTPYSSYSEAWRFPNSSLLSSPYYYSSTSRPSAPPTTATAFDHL

[8] = non-specific cell cytotoxicity, dose response, cytotoxicity control for PAX8 inhibitor project, plate reader, dry powder samples (AID 743021); type: functional, cell-based

Beta-galactosidase, sequence (Q8VNN2 whole entry): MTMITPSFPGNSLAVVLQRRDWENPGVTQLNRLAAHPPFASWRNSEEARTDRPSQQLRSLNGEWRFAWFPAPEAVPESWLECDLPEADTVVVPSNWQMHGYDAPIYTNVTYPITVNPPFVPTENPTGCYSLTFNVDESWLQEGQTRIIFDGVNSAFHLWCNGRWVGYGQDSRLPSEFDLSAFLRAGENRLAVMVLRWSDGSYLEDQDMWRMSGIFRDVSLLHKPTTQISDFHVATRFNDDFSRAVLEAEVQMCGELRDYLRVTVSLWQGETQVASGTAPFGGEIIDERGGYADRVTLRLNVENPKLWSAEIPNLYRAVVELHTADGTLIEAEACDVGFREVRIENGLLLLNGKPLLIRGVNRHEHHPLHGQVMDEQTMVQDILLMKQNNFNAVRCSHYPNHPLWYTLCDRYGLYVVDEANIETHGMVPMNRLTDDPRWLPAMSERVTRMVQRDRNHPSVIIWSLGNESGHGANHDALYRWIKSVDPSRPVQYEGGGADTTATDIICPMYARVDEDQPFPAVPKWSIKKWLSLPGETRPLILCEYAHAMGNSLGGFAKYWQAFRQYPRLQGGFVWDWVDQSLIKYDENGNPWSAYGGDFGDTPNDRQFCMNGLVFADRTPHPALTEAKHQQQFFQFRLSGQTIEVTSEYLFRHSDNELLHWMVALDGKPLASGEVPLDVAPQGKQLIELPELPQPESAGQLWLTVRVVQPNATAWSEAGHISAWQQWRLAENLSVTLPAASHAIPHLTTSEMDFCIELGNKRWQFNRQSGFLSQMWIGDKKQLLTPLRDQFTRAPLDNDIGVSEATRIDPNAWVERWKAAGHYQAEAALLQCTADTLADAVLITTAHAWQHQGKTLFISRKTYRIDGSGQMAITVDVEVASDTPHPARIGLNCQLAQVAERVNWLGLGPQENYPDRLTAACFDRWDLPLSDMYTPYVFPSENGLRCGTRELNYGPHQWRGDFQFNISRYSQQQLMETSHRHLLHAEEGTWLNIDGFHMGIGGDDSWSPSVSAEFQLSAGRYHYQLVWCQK

O=C(C#Cc1ccccc1)c1ccco1
EC50 (Beta-galactosidase): > 40 µM (inactive) | EC50 [1]: 6.57 µM (active) | IC50 [2]: 8.43 µM (active) | CC50 [3]: 11 µM (active) | CC50 [4]: 9.8 µM (active) | CC50 [5]: 7.89 µM (active) | IC50 (cells): 1.32 µM (active) | IC50 (CHO): 1.82 µM (active) | AC50 [6]: 3.05 µM (active) | IC50 (Beta Lactamase): > 49.8 µM (inactive) | AC50 (INS1): 6.11 µM (active) | IC50 [7]: 2.25 µM (active) | AC50 (Paired box protein Pax-8): 9.61 µM (active) | AC50 [8]: 23.7 µM (active)
